Source: patent US7714014B2, “Targeting GLI proteins in human cancer by small molecules” (The Regents of the University of California, priority 2005, dated 2010)

Columns and labels:
[1] = system: NSCLC H460 tumor; assay: Mouse Xenograft Model (NSCLC H460); type: in vivo
Procedure: (§1) The small molecule compound FN1-8 was tested in vivo in the mouse xenograft model bearing human cancer cells. Briefly, female athymic nude mice strain NCRNU-M (5-10 weeks old, 20-25 grams in weight; Taconic, Germantown, N.Y.) was maintained in pathogen-free conditions. Three human cancer cell lines: NSCLC H460, melanoma LOX, (both showing Gli3 activation), and colon cancer HT29 (no Gli3 activation, as a negative control), were used. Ten mice were used in each group and injected s.c. with 3×10^6 cancer cells in the dorsal area in a volume of 100 μl. After inoculation, human cancer cells were allowed to grow in mice for 7 days to become visible tumor nodules. Animals were then injected with small molecule compound FN1-8 at a dose of 50 mg/kg body weight (1 mg/mouse per day). DMSO alone was used as control. The compounds and controls were adjusted in 40 ul volume for i.p. injection in the abdomens of the mice. One mouse was sacrificed within 1 hour after the compound injection (after 6 injections) and its blood was collected. Then mass spectrometry was used to analyze the compound level in the blood sample to confirm the compound absorption into the blood stream of the mice. […] Tumor size was measured every three days, and tumor volumes were calculated using width (x) and length (y) (x^2y/2, where x<y). […]
In vivo efficacy study of small molecule compound FN1-8 were performed using a Mouse Xenograft Model (NSCLC H460). […] Tumor size (length and width according to their shapes) was measured with a caliper every three days. Tumor volumes were calculated using the equation […].
Three weeks after the initial tumor inoculation and the treatment as described above, tumors were dissected from the mice of each group and their weights were measured using a scale.
The in vivo efficacy study of small molecule compounds FN1-5 and FN1-8 in the Mouse Xenograft Model (NSCLC H460) was repeated using lower doses of the compounds. […] 24 days after the initial tumor inoculation, tumors were dissected from the mice of each group and their weights were measured using a scale. […]

[2] = system: NSCLC A549 tumor; assay: Mouse Xenograft Model (NSCLC A549); type: in vivo; conditions: 15 mg/kg daily 2×6 days then 30 mg/kg daily 1×6 days i.p.; 43 days after inoculation
Procedure: as §1, with “collected.” for “collected. Then mass spectrometry was used to analyze the compound level in the blood sample to confirm the compound absorption into the blood stream of the mice.”
In vivo efficacy study ofFN1-8 in Mouse Xenograft Model (NSCLC A549) was also examined. […] 43 days after the initial tumor inoculation, tumors were dissected from the mice of each group and their weights were measured using a scale. […]

[3] = system: Malme-3M (melanoma); assay: Apoptosis analysis (Annexin V FITC, flow cytometry); type: cell-based, human; conditions: 10 μM
Procedure: (§2) Apoptosis was analyzed by using an Annexin V FITC Apoptosis Detection Kit (Biosource, Camarillo, Calif.), according to the manufacturer's protocol. After treatment with different small molecule compounds at various concentrations for about 3 days, cells were harvested by trypsinization, stained and immediately analyzed by flow cytometry (FACScan; Decton Dickinson, Franklin Lake, N.J.). Early apoptotic cells with exposed phosphatidylserine but intact cell membranes will bind to Annexin V-FITC, but not propidium iodide (PI). Cells in necrotic or late apoptotic stages will be labeled with both Annexin V-FITC and PI. “% apoptotic cells” or “% apoptosis” refers to the combined early and late apoptotic cells.
(§3) Dose titration experiments of small molecule compound FN1-8 was performed using the melanoma cell lines A375, G361, SK-Mel-2, SK-Mel-5, and SK-Mel-28. A 375 cells were plated in 6-well plates and incubated with DM SO (control) or 2 μM, 5 μM, 10 μM, 20 μM, and 40 μM of FN1-8, respectively, for 3 days. A dramatic and dose-dependent cell killing in this cell line was observed when FN1-8 was added at 10 μM or more (data not shown). […] After 4 days of incubation with 20 μM FN1-8, approximately 20% of the Malme-3M cells, 28% of SK-Mel-2 cells, 36% of SK-Mel-5 cells, 41% of A375 cells, and 17% of G361 cells underwent apoptosis, while less than 3% of normal skin fibroblast cells underwent apoptosis under the same conditions (Table 3).

[4] = system: SK-Mel-5 (melanoma); assay: as above; type: cell-based, human
Procedure: as §2, §3

[5] = system: SK-Mel-2 (melanoma); assay: as above; type: cell-based, human
Procedure: as §2, §3

[6] = system: Malme-3 (normal skin cells); assay: as above; type: cell-based, human; conditions: 10 μM
Procedure: as §2, §3

[7] = system: SK-Mel-28 (melanoma); assay: as above; type: cell-based, human
Procedure: as §2, §3

[8] = system: A375 (melanoma); assay: as above; type: cell-based, human
Procedure: as §2, §3

[9] = system: G361 (melanoma); assay: as above; type: cell-based, human
Procedure: as §2, §3

SMILES: O=C(NCCc1ccc(O)cc1)C1C(c2ccccc2)=NN(c2ccccc2)C1c1ccccc1 (stereo not shown) [FN1-8, N-(2-(4-Hydroxyphenyl)ethyl)-1,3,5-triphenyl-4,5-dihydro-pyrazole-4-carboxyamide]
- tumor growth ([1]; 50 mg/kg i.p. daily for 2×6 days): significantly suppressed
- tumor weight ([1]; 50 mg/kg i.p. daily for 2×6 days, three weeks after inoculation): dramatically decreased
- tumor weight ([1]; low dose 15 mg/kg i.p. daily for 2×6 days, 24 days after inoculation): decreased
- tumor weight [2]: decreased
- % of apoptotic cells [3]: 10.5%
- % of apoptotic cells ([4]; SK-Mel-5, 10 μM): 7.9%
- % of apoptotic cells ([4]; SK-Mel-5, 20 μM, 4 days of incubation): 34.9%
- % of apoptotic cells ([5]; SK-Mel-2, 10 μM): 9%
- % of apoptotic cells ([5]; SK-Mel-2, 20 μM, 4 days of incubation): 25.3%
- % of apoptotic cells [6]: 2.1%
- % of apoptotic cells ([7]; SK-Mel-28, 10 μM): 7.7%
- % of apoptotic cells ([7]; SK-Mel-28, 20 μM): 11.8%
- % of apoptotic cells ([8]; A375, 10 μM): 35.8%
- % of apoptotic cells ([8]; A375, 20 μM, 4 days of incubation): 39.7%
- % of apoptotic cells ([9]; G361, 10 μM): 7.5%
- % of apoptotic cells ([9]; G361, 20 μM, 4 days of incubation): 15.5%
